Experimental findings from patent publication US11304929B2, “Tosylacetate based compounds and derivatives thereof as PHGDH inhibitors” (priority 2017, dated 2022) are described below.

In assay [1] the target is PHGDH (Homo sapiens (Human), UniProt O43175). The assay can be described thus: 3-Phosphoglycerate Dehydrogenase (PHGDH) Fluorescence Intensity Assay, run at two NAD/3-PG ratios: PHGDH_HIGH_NAD/3-PG (250 μM NAD/500 μM 3-PG) and PHGDH_500_NAD/3-PG (500 μM NAD/500 μM 3-PG). In kind it is biochemical.
Assay [2] deals with MDA-MB-468. The assay can be described thus: 13C3 Serine Assay MDA-MB-468 (13C3 serine levels by LC/MS/MS). In kind it is cell-based. Conditions: Homo sapiens.
Method: Cells are cultivated in Medium I in a 75 mL flask.
Day 1: 5000 cells in 180 μL Medium I/well were seeded into a 96-well plate. Plates were incubated at 37° C. in a 5% CO2 incubator overnight.
Day 2: 10 mM DMSO stock from test compounds were serially pre-diluted with Medium I (See dilution scheme: for the first well 20 μL DMSO stock are diluted with 180 μL Medium I. From this 1000 μM solution further seven 1:3 (1+2) dilution are prepared with Medium I). 20 μL of these pre-dilutions are transferred in duplicates to the 96-well plate of Day 1. After incubation at 37° C. in a CO2 incubator for 1 hour the medium was removed, 100 μL PBS (tempered to room temperature) added and subsequently removed again.
180 μL Medium II were then added per well and 20 μL of serial dilutions of test compounds in Medium II (as described before) were transferred per well as above. After 180 minutes incubation at 37° C. in a CO2 incubator the medium was again cautiously removed.
After the addition of 100 μL methanol: H2O (80:20, v:v, pre-cooled to −80° C.) the plates were sealed immediately and frozen at −80° C.
At day of measurement plates were thawn, centrifuged and the supernatant evaporated. The samples were resuspended in 100 μl water for tandem mass spectrometry.
^13C3 serine levels were analyzed with LC/MS/MS using Multiple Reaction Monitoring (MRM).
IC50 values were computed from these values using a 4 parametric logistic model.
[3] abbreviates: 250 μM NAD/500 μM 3-PG, read-out: IC50 (PHGDH_HIGH_NAD/3-PG).
Where [4] appears, read: MDA-MB-468 cells, 13C3 serine levels by LC/MS/MS, read-out: IC50 (13CSERINE).
[5] abbreviates: MDA-MB-468, read-out: IC50 (13CSERINE).
[6] abbreviates: 500 μM NAD/500 μM 3-PG, read-out: IC50 (PHGDH_500_NAD/3-PG).

Where two headings read alike, the source gives them in different places.

Chain of PHGDH (O43175 2-533 limits assumed): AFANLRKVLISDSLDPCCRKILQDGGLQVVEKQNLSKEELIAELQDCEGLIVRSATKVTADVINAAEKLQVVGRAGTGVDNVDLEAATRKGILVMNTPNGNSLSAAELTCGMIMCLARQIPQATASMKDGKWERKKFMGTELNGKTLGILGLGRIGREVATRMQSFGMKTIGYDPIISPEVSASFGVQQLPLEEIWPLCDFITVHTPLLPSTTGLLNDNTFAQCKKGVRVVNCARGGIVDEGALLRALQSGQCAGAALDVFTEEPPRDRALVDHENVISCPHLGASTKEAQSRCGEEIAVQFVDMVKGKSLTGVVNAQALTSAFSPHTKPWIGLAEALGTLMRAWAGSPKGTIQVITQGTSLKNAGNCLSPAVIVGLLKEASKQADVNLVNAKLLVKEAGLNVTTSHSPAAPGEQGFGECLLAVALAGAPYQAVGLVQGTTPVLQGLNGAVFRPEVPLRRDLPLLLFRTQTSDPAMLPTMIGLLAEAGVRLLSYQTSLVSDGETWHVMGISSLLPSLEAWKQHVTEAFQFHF

On to `COC(=O)CS(=O)(=O)c1ccc([C@@H](C)NC(=O)c2cc3c(Cl)cc(-c4cnn(C)c4)cc3n2C)cc1` [Example 01-003, methyl 2-{4-[(1R)-1-{[4-chloro-1-methyl-6-(1-methyl-1H-pyrazol-4-yl)-1H-indol-2-yl]formamido}ethyl]benzenesulfonyl}acetate], for which the IC50 in assay [1] (setting [3]) amounted to 905 nM; in assay [2] (setting [4]), 109 nM.

On to `CCOC(=O)CS(=O)(=O)c1ccc([C@@H](C)NC(=O)c2cc3c(Cl)cc(C)cc3n2C)cc1` [Example 01-004, ethyl 2-{4-[(1R)-1-[(4-chloro-1,6-dimethyl-1H-indol-2-yl)formamido]ethyl]benzenesulfonyl}acetate], for which the IC50 was found to be 964 nM in assay [1] (setting [3]) and 29.3 nM in assay [2] (setting [4]).

For the molecule `CCOC(=O)CS(=O)(=O)c1ccc([C@@H](CO)NC(=O)c2cc3c(Cl)cc(C)cc3n2C)cc1` [Example 01-005, ethyl 2-{4-[(1S)-1-[(4-chloro-1,6-dimethyl-1H-indol-2-yl)formamido]-2-hydroxyethyl]benzenesulfonyl}acetate], the IC50 in assay [1] (setting [3]) was 223 nM; in assay [2] (setting [4]) it was 3.3 nM.

Turning to `COC(=O)CS(=O)(=O)c1ccc([C@@H](C)NC(=O)c2cc3c(Cl)c(Cl)c(C)nc3n2C)cc1` [Example 01-006, methyl 2-{4-[(1R)-1-({4,5-dichloro-1,6-dimethyl-1H-pyrrolo[2,3-b]pyridin-2-yl}formamido)ethyl]benzenesulfonyl}acetate], the IC50 was 485 nM in assay [1] (setting [3]) and 88.8 nM in assay [2] (setting [4]).

`COC(=O)CS(=O)(=O)c1ccc([C@@H](CO)NC(=O)c2cc3c(Cl)c(Cl)c(C)cc3n2C)cc1` [Example 01-007, methyl 2-{4-[(1S)-1-[(4,5-dichloro-1,6-dimethyl-1H-indol-2-yl)formamido]-2-hydroxyethyl]benzenesulfonyl}acetate]: the IC50 was determined as 121 nM in assay [1] (setting [3]) and 5 nM in assay [2] (setting [4]).

As to `CCOC(=O)CS(=O)(=O)c1ccc([C@@H](C)NC(=O)c2cc3c(Cl)cc(-c4cnn(C)c4)cc3n2C)cc1` [Example 01-009, ethyl 2-{4-[(1R)-1-{[4-chloro-1-methyl-6-(1-methyl-1H-pyrazol-4-yl)-1H-indol-2-yl]formamido}ethyl]benzenesulfonyl}acetate], the results for the IC50 in assay [1] (setting [3]) and in assay [2] (setting [4]) were 815 nM and 44.1 nM, respectively.

On to `CC(C)OC(=O)CS(=O)(=O)c1ccc([C@@H](C)NC(=O)c2cc3c(Cl)cc(-c4cnn(C)c4)cc3n2C)cc1` [Example 01-011, propan-2-yl 2-{4-[(1R)-1-{[4-chloro-1-methyl-6-(1-methyl-1H-pyrazol-4-yl)-1H-indol-2-yl]formamido}ethyl]benzenesulfonyl}acetate], for which the figures for the IC50 in assay [1] (setting [3]) and in assay [2] (setting [4]) were 1930 nM and 489 nM, respectively.

Take `COC(=O)CS(=O)(=O)c1ccc([C@@H](C)NC(=O)c2cc3c(Cl)cc(C)cc3n2C)cc1` [Example 01-012, methyl 2-{4-[(1R)-1-[(4-chloro-1,6-dimethyl-1H-indol-2-yl)formamido]ethyl]benzenesulfonyl}acetate]: the IC50 was found to be 412 nM in assay [1] (setting [3]) and 52.5 nM in assay [2] (setting [4]).

As to `COC(=O)CS(=O)(=O)c1ccc([C@@H](CO)NC(=O)c2cc3c(Cl)cc(C)cc3n2C)cc1` [Example 01-013, methyl 2-{4-[(1S)-1-[(4-chloro-1,6-dimethyl-1H-indol-2-yl)formamido]-2-hydroxyethyl]benzenesulfonyl}acetate], the IC50 in assay [1] (setting [3]) was found to be 87 nM; in assay [2] (setting [5]), 8.3 nM.

With `CCOC(=O)CS(=O)(=O)c1ccc([C@@H](C)NC(=O)c2cc3c(Cl)c(Cl)c(C)nc3n2C)cc1` [Example 01-016, ethyl 2-{4-[(1R)-1-({4,5-dichloro-1,6-dimethyl-1H-pyrrolo[2,3-b]pyridin-2-yl}formamido)ethyl]benzenesulfonyl}acetate], the IC50 in assay [1] (setting [3]) stood at 1090 nM; in assay [2] (setting [4]), 72.1 nM.

Turning to `Cc1cc2c(cc(C(=O)N[C@H](CO)c3ccc(S(=O)(=O)CC(=O)OC(C)C)cc3)n2C)c(Cl)c1Cl` [Example 01-021, propan-2-yl 2-{4-[(1S)-1-[(4,5-dichloro-1,6-dimethyl-1H-indol-2-yl)formamido]-2-hydroxyethyl]benzenesulfonyl}acetate], the IC50 in assay [1] (setting [3]) is 463 nM; in assay [2] (setting [4]), 12.6 nM.

As to `COC(=O)CS(=O)(=O)c1ccc([C@@H](CO)NC(=O)c2cc3c(Cl)c(Cl)c(C)nc3n2C)cc1` [Example 01-023, methyl 2-{4-[(1S)-1-({4,5-dichloro-1,6-dimethyl-1H-pyrrolo[2,3-b]pyridin-2-yl}formamido)-2-hydroxyethyl]benzenesulfonyl}acetate], the IC50 was 216 nM in assay [1] (setting [3]) and 0.8 nM in assay [2] (setting [4]).

Turning to `CC(C)OC(=O)CS(=O)(=O)c1ccc([C@@H](C)NC(=O)c2cc3cc(Cl)c(-c4cnn(CCN5CCOCC5)c4)cc3n2C)cc1` [Example 01-026, propan-2-yl 2-{4-[(1R)-1-[(5-chloro-1-methyl-6-{1-[2-(morpholin-4-yl)ethyl]-1H-pyrazol-4-yl}-1H-indol-2-yl)formamido]ethyl]benzenesulfonyl}acetate], the figures for the IC50 in assay [1] (setting [3]) and in assay [2] (setting [4]) were 1350 nM and 35.9 nM, respectively.

Turning to `COC(=O)CS(=O)(=O)c1ccc([C@@H](C)NC(=O)c2cc3cc(Cl)c(-c4cnn(CCN5CCOCC5)c4)cc3n2C)cc1` [Example 01-027, methyl 2-{4-[(1R)-1-[(5-chloro-1-methyl-6-{1-[2-(morpholin-4-yl)ethyl]-1H-pyrazol-4-yl}-1H-indol-2-yl)formamido]ethyl]benzenesulfonyl}acetate], the IC50 in assay [1] (setting [3]) amounted to 248 nM; in assay [2] (setting [4]) it was 34.2 nM.

In the case of `CCOC(=O)CS(=O)(=O)c1ccc([C@@H](CO)NC(=O)c2cc3c(F)c(F)c(C)cc3n2C)cc1` [Example 01-028, ethyl 2-{4-[(1S)-1-[(4,5-difluoro-1,6-dimethyl-1H-indol-2-yl)formamido]-2-hydroxyethyl]benzenesulfonyl}acetate], the IC50 is 267 nM in assay [1] (setting [3]), 525 nM in assay [1] (setting [6]) and 7.3 nM in assay [2] (setting [4]).

In the case of `COC(=O)CS(=O)(=O)c1ccc([C@@H](C)NC(=O)c2cc(-c3ccc(F)cc3)nn2C)cc1` [Example 02-001, methyl 2-{4-[(1R)-1-{[3-(4-fluorophenyl)-1-methyl-1H-pyrazol-5-yl]formamido}ethyl]benzenesulfonyl}acetate], the IC50 in assay [1] (setting [3]) is 1260 nM; in assay [2] (setting [4]), 32.8 nM.

With `CCOC(=O)CS(=O)(=O)c1ccc([C@@H](C)NC(=O)c2cc(-c3ccc(F)cc3)nn2C)cc1` [Example 02-004, ethyl 2-{4-[(1R)-1-{[3-(4-fluorophenyl)-1-methyl-1H-pyrazol-5-yl]formamido}ethyl]benzenesulfonyl}acetate], the IC50 in assay [1] (setting [3]) is 3100 nM; in assay [2] (setting [4]), 62.1 nM.

In the case of `CCOC(=O)CS(=O)(=O)c1ccc([C@@H](C)NC(=O)c2cc(-c3cccc4cc[nH]c34)nn2C)cc1` [Example 02-005, ethyl 2-{4-[(1R)-1-{[3-(1H-indol-7-yl)-1-methyl-1H-pyrazol-5-yl]formamido}ethyl]benzenesulfonyl}acetate], the results for the IC50 in assay [1] (setting [3]) and in assay [2] (setting [4]) were 3000 nM and 64.8 nM, respectively.

Take `COC(=O)CS(=O)(=O)c1ccc([C@@H](CO)NC(=O)c2cc(-c3ccccc3)nn2C)cc1` [Example 02-007, methyl 2-{4-[(1S)-2-hydroxy-1-[(1-methyl-3-phenyl-1H-pyrazol-5-yl)formamido]ethyl]benzenesulfonyl}acetate]: the IC50 was determined as 4340 nM in assay [1] (setting [3]) and 167 nM in assay [2] (setting [4]).

With `CC(C)OC(=O)CS(=O)(=O)c1ccc([C@@H](C)NC(=O)c2cc(-c3ccc(F)cc3)nn2C)cc1` [Example 02-008, propan-2-yl 2-{4-[(1R)-1-{[3-(4-fluorophenyl)-1-methyl-1H-pyrazol-5-yl]formamido}ethyl]benzenesulfonyl}acetate], the IC50 in assay [1] (setting [3]) stood at 4840 nM; in assay [2] (setting [4]), 68.4 nM.

On to `COC(=O)CS(=O)(=O)c1ccc([C@@H](C)NC(=O)c2cc(-c3ccccc3)nn2C)cn1` [Example 02-010, methyl 2-({5-[(1R)-1-[(1-methyl-3-phenyl-1H-pyrazol-5-yl)formamido]ethyl]pyridin-2-yl}sulfonyl)acetate], for which the values for the IC50 in assay [1] (setting [3]) and in assay [2] (setting [4]) were 3690 nM and 594 nM, respectively.

In the case of `CC(C)OC(=O)CS(=O)(=O)c1ccc([C@@H](C)NC(=O)c2cc(-c3ccccc3)nn2C)cc1` [Example 02-011, propan-2-yl 2-{4-[(1R)-1-[(1-methyl-3-phenyl-1H-pyrazol-5-yl)formamido]ethyl]benzenesulfonyl}acetate], the IC50 turned out to be 6720 nM in assay [1] (setting [3]) and 135 nM in assay [2] (setting [4]).

As to `Cc1cc(Cl)c2cc(C(=O)N[C@H](CO)c3ccc(S(=O)(=O)CC(=O)O)cc3)n(C)c2c1` [Example 03-002, 2-{4-[(1S)-1-[(4-chloro-1,6-dimethyl-1H-indol-2-yl)formamido]-2-hydroxyethyl]benzenesulfonyl}acetic acid], the IC50 was determined as 6 nM in assay [1] (setting [3]) and 1380 nM in assay [2] (setting [5]).

On to `Cc1cc2c(cc(C(=O)N[C@H](C)c3ccc(S(=O)(=O)CC(=O)O)cc3)n2C)c(Cl)c1Cl` [Example 03-005, 2-{4-[(1R)-1-[(4,5-dichloro-1,6-dimethyl-1H-indol-2-yl)formamido]ethyl]benzenesulfonyl}acetic acid], for which the IC50 was 4 nM in assay [1] (setting [3]), 9 nM in assay [1] (setting [6]) and 1070 nM in assay [2] (setting [5]).

In the case of `Cc1cc2c(cc(C(=O)N[C@H](CO)c3ccc(S(=O)(=O)CC(=O)O)cc3)n2C)c(Cl)c1Cl` [Example 03-006, 2-{4-[(1S)-1-[(4,5-dichloro-1,6-dimethyl-1H-indol-2-yl)formamido]-2-hydroxyethyl]benzenesulfonyl}acetic acid], the IC50 worked out at 3 nM in assay [1] (setting [3]), 4 nM in assay [1] (setting [6]) and 203 nM in assay [2] (setting [5]).

Regarding `Cc1cc(Cl)c2cc(C(=O)N[C@H](C)c3ccc(S(=O)(=O)CC(=O)O)cc3)n(C)c2c1` [Example 03-009, 2-{4-[(1R)-1-[(4-chloro-1,6-dimethyl-1H-indol-2-yl)formamido]ethyl]benzenesulfonyl}acetic acid], the IC50 in assay [1] (setting [3]) was determined as 8 nM; in assay [2] (setting [5]) it was 3570 nM.
